Results on two molecules are retold here after patent publication US5663201A, “Desferrioxamine-B salts” (CIBA-GEIGY Corporation, priority 1992, dated 1997).

Counter-ions that a name gives are not always drawn. Like-named read-outs stand apart in the source and are kept apart here.

The format of data set [1] is physicochemical. The conditions noted are these: n-octanol/phosphate buffer, pH 7.4. Here is the method: (§1) The partition coefficients of the salts prepared in Examples 1 to 5 between n-octanol and water are determined by the `shake-flask` method of Leo et at, Chem. Rev., 71(6), 525 (1971).
(§2) The n-octanol and aqueous phases are mutually saturated prior to conducting the experiment. The desferrioxamine-B sulphonic acid addition salt is dissolved in the aqueous phase at a concentration of 0.005 mol/l and the partition experiment is performed by shaking the vessel containing the two phases until an equilibrium has been achieved. […] After equilibrium has been achieved, the sample is centrifuged to enable phase separation. Both organic and aqueous phases are analysed for desferrioxamine-B content via extraction of an appropriate aliquot, quenching with an aqueous (for assay of the aqueous phase) or methanolic (for assay of the n-octanol phase) solution of FeCl3, and measurement of the absorption of the characteristic ferrioxamine-B chelate at ca. 450 nm. Respective calibration plots (absorbance vs. concentration of desferrioxamine-B sulphonic acid salt) for the assay of both aqueous and organic phases show a linear response over the concentration range studied. The results obtained are as follows:
The partition coefficients of the salts prepared in Examples 1 to 5 between n-octanol and an aqueous phosphate buffer at pH7.4 having an ionic strength of 0.31 mol/l are determined using the procedure of Examples 6-10. The results obtained are as follows:
The use of n-octanol/aqueous media partition coefficients as a model for the lipophilicity of drugs is well established (see the abovementioned Leo et al reference). The aqueous phase in Examples 11 to 15 simulates physiological conditions.

Data set [2] in a line: intrinsic dissolution of tablets, Langenbucher flow-through apparatus. The class given is physicochemical. The conditions noted are these: water, 25° C. On the procedure:
Tablets are prepared from the salts of Examples 1 and 4 by compressing a mixture of 99 parts of the salt and 1 part of magnesium stearate in a 13mm die for 2 minutes under a pressure of 4×10^5 kPa. The intrinsic dissolution rates of the tablets are determined using a Langenbucher flow-through apparatus, with water at 25° C. as the dissolution medium. The amount of desferrioxamine-B dissolved in the medium is measured at intervals using a spectrophotometric assay at 215 nm.

Data set [3] deals with Daudi cell line (B-cell lymphoma). In words: iron-chelation bioassay: growth inhibiting effect on cells through iron removal, [3H] Thymidine uptake. The class given is cell-based. The conditions noted are these: 72 hours, Control (0 μM): Ex 18 22297, Ex 19 23897, listed as octanesulphonate. Here is the method: The iron-chelating properties of salts of the invention in a biological system are determined by means of a bioassay in which the growth inhibiting effect of the salts on cells through iron removal is measured by the uptake of radioactively labelled thymidine into the cells. The bioassay is carried out using a Daudi cell line (B-cell lymphoma), a Roswell Park Memorial Institute (RPMI) 1640 medium containing 1 µM ferric citrate and supplements as low iron washing medium and RPM11640 together with 5% by weight of foetal calf serum as passaging medium.
The cells are fed 24 hours before use. They are washed twice in the low iron washing medium to remove any excess iron and diluted with this medium to a concentration of 0.2×10^6 cells/0.180 ml. To 0.180 ml aliquots are added 0.02 ml of solutions of the desferrioxamine-B salts under test in phosphate-buffered saline (PBS) to give concentrations ranging from a Control containing no salt to a […] solution. The cells are then incubated at 37° C. in an atmosphere containing 5% by volume of carbon dioxide for 72 hours, being pulsed for the last 8 hours of that time with labelled [^3 H] Thymidine at 5 micro Ci/ml. The resulting cells are harvested and their radioactive disintegrations are counted for 10 minutes. The results are shown in the table below as the average of 4 separate experiments (except the Control result in Example 18 which is the average of 3 separate experiments).

Data set [4] is classed as physicochemical. The conditions noted are these: n-octanol/water, 5000 µM. On the procedure:
as §1
as §2, with “follows: […]” for “follows:”

For data set [5] the following is noted: in words, U.S. Pat. No. 3,247,197; cited from earlier work.

For `CC(=O)N(O)CCCCCNC(=O)CCC(=O)N(O)CCCCCNC(=O)CCC(=O)N(O)CCCCCN` [Example 4, octane-1-sulphonate salt of desferrioxamine-B], the “Partition Coefficient” value amounted to 0.047 in data set [1] and 0.121 in data set [4]. Moreover, the “% Desferrioxaine-B salt dissolved” value in data set [2] (1 min, listed as octanesulphonate) is on record as 1.71%; in data set [2] (2 min, listed as octanesulphonate), 3.07%; in data set [2] (5 min, listed as octanesulphonate) it was 6.88%; in data set [2] (10 min, listed as octanesulphonate), 10.56%; in data set [2] (15 min, listed as octanesulphonate), 14.22%; in data set [2] (20 min, listed as octanesulphonate) it was 17.94%. For the same molecule, the “% Desferrioxaine-B salt dissolved” value in data set [2] (30 min, listed as octanesulphonate) came out at 24.73%; in data set [2] (50 min, listed as octanesulphonate), 37.09%; in data set [2] (75 min, listed as octanesulphonate) it was 48.75%; in data set [2] (100 min, listed as octanesulphonate) it was 58.34%; in data set [2] (125 min, listed as octanesulphonate) it was 66.38%; in data set [2] (150 min) it was 72.38%. Also, the “% Desferrioxaine-B salt dissolved” value in data set [2] (175 min, listed as octanesulphonate) is given as 79.13%; in data set [2] (200 min, listed as octanesulphonate) it was 84.91%; in data set [2] (225 min, listed as octanesulphonate) it was 89.25%; in data set [2] (250 min, listed as octanesulphonate) it was 92.50%; in data set [2] (275 min, listed as octanesulphonate), 94.91%; in data set [2] (300 min, listed as octanesulphonate) it was 96.34%. For the same molecule, the “intrinsic rate of release into the aqueous dissolution medium” value in data set [2] (in words) is listed as “slow”. For the same molecule, the “Disintegrations Per Minute ([3H] Thymidine uptake)” value in data set [3] (0.5 μM salt) is recorded as 21830 Disintegrations Per Minute; in data set [3] (1 μM salt), 14765 Disintegrations Per Minute; in data set [3] (2 μM salt), 7651 Disintegrations Per Minute; in data set [3] (3 μM salt) it was 7109 Disintegrations Per Minute; in data set [3] (4 μM salt), 6280 Disintegrations Per Minute; in data set [3] (5 μM salt), 5373 Disintegrations Per Minute. Besides, the “Disintegrations Per Minute ([3H] Thymidine uptake)” value in data set [3] (6 μM salt) was 4122 Disintegrations Per Minute; in data set [3] (7.5 μM salt), 3716 Disintegrations Per Minute; in data set [3] (10 μM salt), 2292 Disintegrations Per Minute; in data set [3] (15 μM salt) it was 1065 Disintegrations Per Minute; in data set [3] (20 μM salt), 482 Disintegrations Per Minute.
`CC(=O)N(O)CCCCCNC(=O)CCC(=O)N(O)CCCCCNC(=O)CCC(=O)N(O)CCCCCN` [desferrioxamine-B]: the “ability to form stable complexes with trivalent metal ions” value in data set [5] was “marked ability to form stable complexes with trivalent metal ions, especially Fe^3+”.
